Assay results as given in PubChem BioAssay AID1918993 (Molecular Pharmacology Branch, DTP, NCI, 2023).

System: 233499-124-R-J3-PDC complex spheroid growth
Assay: Anticancer human tumor 233499-124-R-J3-PDC patient-derived colon adenocarcinoma cell line growth inhibition [AhR]
Conditions: for IC50: curve of first compound; for viability, T/C: stronger effect = lower value
Summary of the method: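 Agents were dosed in half-log steps down from roughly clinical Cmax, or from 10 microM where Cmax was unknown, alone and with AhR antagonists. Read-out: percent test/control growth of tumor spheroids containing HUVEC and MSC stromal cells.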

[1] = second compound 0.1 µM, first compound 0.0316 µM
[2] = second compound 0.1 µM, first compound 0.1 µM
[3] = second compound 0.1 µM, first compound 0.316 µM
[4] = second compound 0.1 µM, first compound 1 µM
[5] = second compound 0.316 µM, first compound 0.0316 µM
[6] = second compound 0.316 µM, first compound 0.1 µM
[7] = second compound 0.316 µM, first compound 0.316 µM
[8] = second compound 0.316 µM, first compound 1 µM
[9] = second compound 1 µM, first compound 0.0316 µM
[10] = second compound 1 µM, first compound 0.1 µM
[11] = second compound 1 µM, first compound 0.316 µM
[12] = second compound 1 µM, first compound 1 µM
[13] = second compound 3.16 µM, first compound 0.0316 µM
[14] = second compound 3.16 µM, first compound 0.1 µM
[15] = second compound 3.16 µM, first compound 0.316 µM
[16] = second compound 3.16 µM, first compound 1 µM
[17] = second compound 10 µM, first compound 0.0316 µM
[18] = second compound 10 µM, first compound 0.1 µM
[19] = second compound 10 µM, first compound 0.316 µM
[20] = second compound 10 µM, first compound 1 µM
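Further: spheroids exposed to agents for seven days before reading.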

COc1cc(C2c3cc4c(cc3C(OC3OC5COC(C)OC5C(O)C3O)C3COC(=O)C23)OCO4)cc(OC)c1O (stereo not given) + Cc1cncc(-c2nc(NCCc3c[nH]c4ccccc34)c3ncn(C(C)C)c3n2)c1
IC50 (second compound 0.1 µM): > 10000 nM | IC50 (second compound 0.316 µM): > 10000 nM | IC50 (second compound 1 µM): > 10000 nM | IC50 (second compound 3.16 µM): > 10000 nM | IC50 (second compound 10 µM): < 31.6 nM | viability, T/C [1]: 92.6% | viability, T/C [2]: 101% | viability, T/C [3]: 109% | viability, T/C [4]: 95.4% | viability, T/C (second compound 0.1 µM, first compound 3.16 µM): 98.6% | viability, T/C (second compound 0.1 µM, first compound 10 µM): 92.9% | viability, T/C [5]: 91.7% | viability, T/C [6]: 89.8% | viability, T/C [7]: 86% | viability, T/C [8]: 81.6% | viability, T/C (second compound 0.316 µM, first compound 3.16 µM): 83.9% | viability, T/C (second compound 0.316 µM, first compound 10 µM): 88.5% | viability, T/C [9]: 77.5% | viability, T/C [10]: 84.4% | viability, T/C [11]: 77.3% | viability, T/C [12]: 88% | viability, T/C (second compound 1 µM, first compound 3.16 µM): 79.8% | viability, T/C (second compound 1 µM, first compound 10 µM): 69.9% | viability, T/C [13]: 78.9% | viability, T/C [14]: 79.5% | viability, T/C [15]: 77.4% | viability, T/C [16]: 73% | viability, T/C (second compound 3.16 µM, first compound 3.16 µM): 74.1% | viability, T/C (second compound 3.16 µM, first compound 10 µM): 55.9% | viability, T/C [17]: 9.81% | viability, T/C [18]: 11.9% | viability, T/C [19]: 30.9% | viability, T/C [20]: 30.1% | viability, T/C (second compound 10 µM, first compound 3.16 µM): 22.2% | viability, T/C (second compound 10 µM, first compound 10 µM): 9.08%

O=C(C=Cn1cnc(-c2cc(C(F)(F)F)cc(C(F)(F)F)c2)n1)NNc1cnccn1 + CC(CO)NC(=O)c1cc(-c2ccc(Cl)cc2)nn(-c2cnn(C)c2)c1=O
IC50 (second compound 0.1 µM): > 3000 nM | IC50 (second compound 0.316 µM): > 3000 nM | IC50 (second compound 1 µM): > 3000 nM | IC50 (second compound 3.16 µM): > 3000 nM | IC50 (second compound 10 µM): 2590 nM | viability, T/C (second compound 0.1 µM, first compound 0.00949 µM): 92.4% | viability, T/C (second compound 0.1 µM, first compound 0.03 µM): 102% | viability, T/C (second compound 0.1 µM, first compound 0.0949 µM): 92.2% | viability, T/C (second compound 0.1 µM, first compound 0.3 µM): 95.1% | viability, T/C (second compound 0.1 µM, first compound 0.949 µM): 82.3% | viability, T/C (second compound 0.1 µM, first compound 3 µM): 59.6% | viability, T/C (second compound 0.316 µM, first compound 0.00949 µM): 93.8% | viability, T/C (second compound 0.316 µM, first compound 0.03 µM): 89.6% | viability, T/C (second compound 0.316 µM, first compound 0.0949 µM): 101% | viability, T/C (second compound 0.316 µM, first compound 0.3 µM): 99.7% | viability, T/C (second compound 0.316 µM, first compound 0.949 µM): 58.9% | viability, T/C (second compound 0.316 µM, first compound 3 µM): 68.4% | viability, T/C (second compound 1 µM, first compound 0.00949 µM): 79.7% | viability, T/C (second compound 1 µM, first compound 0.03 µM): 101% | viability, T/C (second compound 1 µM, first compound 0.0949 µM): 93.9% | viability, T/C (second compound 1 µM, first compound 0.3 µM): 76.5% | viability, T/C (second compound 1 µM, first compound 0.949 µM): 59.1% | viability, T/C (second compound 1 µM, first compound 3 µM): 56.1% | viability, T/C (second compound 3.16 µM, first compound 0.00949 µM): 91.3% | viability, T/C (second compound 3.16 µM, first compound 0.03 µM): 97% | viability, T/C (second compound 3.16 µM, first compound 0.0949 µM): 84.9% | viability, T/C (second compound 3.16 µM, first compound 0.3 µM): 99% | viability, T/C (second compound 3.16 µM, first compound 0.949 µM): 62.7% | viability, T/C (second compound 3.16 µM, first compound 3 µM): 56.6% | viability, T/C (second compound 10 µM, first compound 0.00949 µM): 93.1% | viability, T/C (second compound 10 µM, first compound 0.03 µM): 87.2% | viability, T/C (second compound 10 µM, first compound 0.0949 µM): 71.8% | viability, T/C (second compound 10 µM, first compound 0.3 µM): 106% | viability, T/C (second compound 10 µM, first compound 0.949 µM): 82% | viability, T/C (second compound 10 µM, first compound 3 µM): 44.5%

CC1COCCN1c1cc(-c2ccnn2C)c2ccnc(-c3ccn[nH]3)c2n1 (stereo not given) + CC(CO)NC(=O)c1cc(-c2ccc(Cl)cc2)nn(-c2cnn(C)c2)c1=O
IC50 (second compound 0.1 µM): 516 nM | IC50 (second compound 0.316 µM): 609 nM | IC50 (second compound 1 µM): 547 nM | IC50 (second compound 3.16 µM): 650 nM | IC50 (second compound 10 µM): 230 nM | viability, T/C (second compound 0.1 µM, first compound 0.00316 µM): 97.6% | viability, T/C (second compound 0.1 µM, first compound 0.01 µM): 95.3% | viability, T/C [1]: 89.1% | viability, T/C [2]: 83.9% | viability, T/C [3]: 63% | viability, T/C [4]: 31.7% | viability, T/C (second compound 0.316 µM, first compound 0.00316 µM): 90.3% | viability, T/C (second compound 0.316 µM, first compound 0.01 µM): 102% | viability, T/C [5]: 90.3% | viability, T/C [6]: 84.9% | viability, T/C [7]: 68.1% | viability, T/C [8]: 36.5% | viability, T/C (second compound 1 µM, first compound 0.00316 µM): 106% | viability, T/C (second compound 1 µM, first compound 0.01 µM): 101% | viability, T/C [9]: 97.9% | viability, T/C [10]: 82.5% | viability, T/C [11]: 60.8% | viability, T/C [12]: 38.2% | viability, T/C (second compound 3.16 µM, first compound 0.00316 µM): 81.9% | viability, T/C (second compound 3.16 µM, first compound 0.01 µM): 86.9% | viability, T/C [13]: 87.2% | viability, T/C [14]: 85.6% | viability, T/C [15]: 60.8% | viability, T/C [16]: 43.6% | viability, T/C (second compound 10 µM, first compound 0.00316 µM): 83.3% | viability, T/C (second compound 10 µM, first compound 0.01 µM): 90% | viability, T/C [17]: 80.8% | viability, T/C [18]: 59% | viability, T/C [19]: 49% | viability, T/C [20]: 33.4%
